Results from patent US8586505B2 (SDS Biotech K. K., priority 2009, dated 2013).

Columns and labels:
Type in all cases: in vivo
[1] = tested on: Phytophthora infestans; assay: whole plant or invertebrate; details: in Solanum lycopersicum, 96 h, read-out: Determination of control effect (preventive value)
[2] = tested on: Pseudoperonospora cubensis; assay: Test of examining control effect on Pseudoperonospora cubensis (potted cucumber plants); details: 96 h, 10% wettable powder adjusted to 125 ppm, 15 ml/pot sprayed on potted cucumber plants one day before spray inoculation, assessed after 1 day wet chamber and 3 days greenhouse, read-out: Determination of control effect (preventive value) on Pseudoperonospora cubensis
Description: (§1) Calculation of Preventive Value: Preventive value={(untreated lesion area rate−treated lesion area rate)/untreated lesion area rate}×100
(§2) Using the thus calculated preventive value, the control effect of each compound was determined in accordance with the following standards.
(§3) High control effect: 100%≧preventive value≧60%
(§4) Low control effect: 60%>preventive value≧0%
Using a spray gun, an agent solution prepared by adjusting a 10% wettable powder of each sample compound to 125 ppm (hereinafter referred to as a “sample agent solution”) was sprayed to potted cucumber plants (variety: Sagamihanjiro, 2.5 leave stage) in a concentration of 15 ml/pot. One day after the spraying, a conidial suspension of Pseudoperonospora cubensis (conidial concentration: 1.0×10^4 cells/ml) was applied to the plants by spray inoculation. After completion of the inoculation, the plants were left at 21° C. under wet chamber conditions for 1 day, and were then left in a greenhouse for 3 days, so that they were fully infected with the aforementioned disease. Thereafter, the disease level on each leaf was compared with that on an untreated leaf, and the control effect of each compound was determined in the same manner as in Example 3(1).

[3] = tested on: Sphaerotheca fuliginea; assay: Test of examining control effect on Sphaerotheca fuliginea (potted cucumber plants); details: Podosphaera fuliginea, 336 h; 10% wettable powder adjusted to 125 ppm, 15 ml/pot sprayed on potted cucumber plants one day before spray inoculation; assessed after 14 days in greenhouse; read-out: Determination of control effect (preventive value) on Sphaerotheca fuliginea
Description: as §1, §2, §3, §4
Using a spray gun, an agent solution prepared by adjusting a 10% wettable powder of each sample compound to 125 ppm (hereinafter referred to as a “sample agent solution”) was sprayed to potted cucumber plants (variety: Sagamihanjiro, 2nd leave stage) in a concentration of 15 ml/pot. One day after the spraying, a conidial suspension of Sphaerotheca fuliginea (conidial concentration: 1.0×10^5 cells/ml) was applied to the plants by spray inoculation. The plants were left in a greenhouse for 14 days, so that they were fully infected with the aforementioned disease. Thereafter, the disease level on each leaf was compared with that on an untreated leaf, and the control effect of each compound was determined in the same manner as in Example 3(1).

CC(C)C(CC#Cc1ccccc1)Nc1ncnc2ccccc12 (stereo not drawn) [compound 298]
pest or weed control at 125 ppm [1]: 60 to 100%
pest or weed control at 125 µg/mL [2]: 60 to 100%
pest or weed control at 125 µg/mL [3]: 60 to 100%

COCc1ccccc1C#CCCNc1ncnc(C)c1Cl [compound 362]
pest or weed control at 125 ppm [1]: 60 to 100%
pest or weed control at 125 µg/mL [2]: 60 to 100%
pest or weed control at 125 µg/mL [3]: 60 to 100%

COc1cccc2c(NC(C)CC#Cc3ccc(F)cc3C(F)(F)F)ncnc12 (stereo not drawn) [compound 353]
pest or weed control at 125 ppm [1]: 0 to 60%
pest or weed control at 125 µg/mL [2]: 60 to 100%
pest or weed control at 125 µg/mL [3]: 60 to 100%

C[Si](C)(C)c1ccc(C#CCCNc2ncnc3ccccc23)cc1 [compound 111]
pest or weed control at 125 ppm [1]: 0 to 60%
pest or weed control at 125 µg/mL [2]: 60 to 100%
pest or weed control at 125 µg/mL [3]: 60 to 100%

FC(F)(F)c1ccccc1C#CCCNc1ncnc2ccc(Cl)cc12 [compound 309]
pest or weed control at 125 ppm [1]: 0 to 60%
pest or weed control at 125 µg/mL [2]: 60 to 100%
pest or weed control at 125 µg/mL [3]: 60 to 100%

CN1C(=O)c2ccc(C#CCCNc3ncnc4sccc34)cc2C1=O [compound 84]
pest or weed control at 125 ppm [1]: 60 to 100%
pest or weed control at 125 µg/mL [2]: 60 to 100%
pest or weed control at 125 µg/mL [3]: 0 to 60%

Cc1cc(C)c(C#CCCNc2ncnc3ccccc23)c(C)c1 [compound 181]
pest or weed control at 125 ppm [1]: 0 to 60%
pest or weed control at 125 µg/mL [2]: 60 to 100%
pest or weed control at 125 µg/mL [3]: 60 to 100%

CC(CC#Cc1ccc(Cl)c(C(F)(F)F)c1)Nc1ncnc2sccc12 (stereo not drawn) [compound 254]
pest or weed control at 125 ppm [1]: 0 to 60%
pest or weed control at 125 µg/mL [2]: 60 to 100%
pest or weed control at 125 µg/mL [3]: 0 to 60%

C/C(C#N)=C/C#CCCNc1ncnc2ccccc12 [compound 93]
pest or weed control at 125 ppm [1]: 60 to 100%
pest or weed control at 125 µg/mL [2]: 60 to 100%
pest or weed control at 125 µg/mL [3]: 60 to 100%

Cc1cc(Cl)ccc1C#CCC(C)Nc1ncnc2sccc12 (stereo not drawn) [compound 250]
pest or weed control at 125 ppm [1]: 60 to 100%
pest or weed control at 125 µg/mL [2]: 60 to 100%
pest or weed control at 125 µg/mL [3]: 60 to 100%

C(#Cc1csc(N2CCCCC2)n1)CCNc1ncnc2ccccc12 [compound 228]
pest or weed control at 125 ppm [1]: 0 to 60%
pest or weed control at 125 µg/mL [2]: 60 to 100%
pest or weed control at 125 µg/mL [3]: 0 to 60%

COCc1ccc(F)cc1C#CCCNc1ncnc2ccccc12 [compound 142]
pest or weed control at 125 ppm [1]: 60 to 100%
pest or weed control at 125 µg/mL [2]: 60 to 100%
pest or weed control at 125 µg/mL [3]: 60 to 100%

COCc1ccccc1C#CCCNc1ncnc2cc(F)c(F)cc12 [compound 319]
pest or weed control at 125 ppm [1]: 60 to 100%
pest or weed control at 125 µg/mL [2]: 60 to 100%
pest or weed control at 125 µg/mL [3]: 60 to 100%

C(#CC1CC1)CCNc1ncnc2ccccc12 [compound 90]
pest or weed control at 125 ppm [1]: 0 to 60%
pest or weed control at 125 µg/mL [2]: 60 to 100%
pest or weed control at 125 µg/mL [3]: 60 to 100%

CC(CC#Cc1ccccc1Cl)Nc1ncnc2ccccc12 (stereo not drawn) [compound 272]
pest or weed control at 125 ppm [1]: 60 to 100%
pest or weed control at 125 µg/mL [2]: 60 to 100%
pest or weed control at 125 µg/mL [3]: 60 to 100%

CC(CC#Cc1nccs1)Nc1ncnc2sccc12 (stereo not drawn) [compound 265]
pest or weed control at 125 ppm [1]: 60 to 100%
pest or weed control at 125 µg/mL [2]: 60 to 100%
pest or weed control at 125 µg/mL [3]: 60 to 100%

COCc1ccc(C)cc1C#CCCNc1ncnc2ccccc12 [compound 144]
pest or weed control at 125 ppm [1]: 60 to 100%
pest or weed control at 125 µg/mL [2]: 60 to 100%
pest or weed control at 125 µg/mL [3]: 60 to 100%

C(#Cc1ccc2c(c1)CCO2)CCNc1ncnc2ccccc12 [compound 157]
pest or weed control at 125 ppm [1]: 0 to 60%
pest or weed control at 125 µg/mL [2]: 60 to 100%
pest or weed control at 125 µg/mL [3]: 60 to 100%

COCc1ccccc1C#CCCNc1ncnc2c(C)cccc12 [compound 325]
pest or weed control at 125 ppm [1]: 60 to 100%
pest or weed control at 125 µg/mL [2]: 60 to 100%
pest or weed control at 125 µg/mL [3]: 60 to 100%

COc1nc(C#CCCNc2ncnc3sccc23)cs1 [compound 67]
pest or weed control at 125 ppm [1]: 60 to 100%
pest or weed control at 125 µg/mL [2]: 60 to 100%
pest or weed control at 125 µg/mL [3]: 60 to 100%

CCC(CC#Cc1ccc(F)cc1C(F)(F)F)Nc1ncnc2ccccc12 (stereo not drawn) [compound 295]
pest or weed control at 125 ppm [1]: 0 to 60%
pest or weed control at 125 µg/mL [2]: 60 to 100%
pest or weed control at 125 µg/mL [3]: 60 to 100%

CC(CC#Cc1ccccc1CO)Nc1ncnc2sccc12 (stereo not drawn) [compound 243]
pest or weed control at 125 ppm [1]: 60 to 100%
pest or weed control at 125 µg/mL [2]: 60 to 100%
pest or weed control at 125 µg/mL [3]: 60 to 100%

COCOc1ccc(C#CCCNc2ncnc3ccccc23)cc1 [compound 121]
pest or weed control at 125 ppm [1]: 60 to 100%
pest or weed control at 125 µg/mL [2]: 60 to 100%
pest or weed control at 125 µg/mL [3]: 60 to 100%
